One data set concerns Gambusia affinis. As to the kind of experiment: Toxicity in Gambusia affinis. Type of data set: organism-based. The conditions noted are these: in vivo.
The nature of data set [1]: Stability at pH 1 to 5. The class given is physicochemical. The conditions noted are these: buffer.

The structures appear in SMILES notation.

For the compound `CC/C=C(C)\C=C(/C)c1oc(OC)c(C)c(=O)c1C` [PLACIDENE A], the Activity entry in the data set on Gambusia affinis is “Non-toxic”. In data set [1], the Stability result is recorded as “Stable”.
Turning to `CCC(C)/C=C/c1oc(=O)cc(OC)c1C` (configuration not stated) [PLACIDENE C], in the data set on Gambusia affinis, the Activity entry is given as “Non-toxic”. Further, the Stability entry in data set [1] is given as “Stable”.
For the compound `CCCC(C)/C=C/c1oc(=O)cc(OC)c1C` (configuration not stated) [PLACIDENE D], the Activity result with Gambusia affinis is reported as “Non-toxic”.
For the compound `CCCC(C)c1oc(=O)cc(OC)c1C` (configuration not stated) [PLACIDENE E], the Activity entry with Gambusia affinis is reported as “Non-toxic”.
On the same count and under the same terms, then `C/C=C(C)\C=C(/C)c1oc(=O)c(C)c(OC)c1C` [PLACIDENE F], with “Non-toxic”.

Source of the values: ChEMBL document CHEMBL1150698, “Placidenes C-F, novel alpha-pyrone propionates from the Mediterranean sacoglossan Placida dendritica” (J Nat Prod, 2003).
